The values that follow come from patent US20260232652A1, “COMBINATIONS OF DGK (DIACYLGLYCEROL KINASE) INHIBITORS” (priority 2023, published 2026).

Molecules are shown by their SMILES.

The subject of one experiment is MC38 mouse model. The experiment is described as follows: MC38 mouse model, tumor volume, survival and re-challenge (Example 6). Type of experiment: in vivo. To be noted: for inhibition of tumor growth: 3 mg/kg p.o. QD each, versus control group; for Tumor volume: each agent 3 mg/kg, antibodies i.p. BIWx4, DGK inhibitors p.o. QD. As for the experimental part: In order to study triple combinations or quadruple combinations with anti-CCR8 antibodies, at least one DGK inhibitor and an anti-PD(L)1 antibody, multiple experiments were performed. In order to see the differences in efficacy, the administered amounts for each individual compound or antibody were reduced to 3 mg/kg to avoid full efficacy in a monotherapy setup and to be able to evaluate the efficacy for triple and quadruple combination therapy.
Efficacy in a MC38 mouse model was analyzed in groups with 10 mice each and is shown in Table 6.1 and FIGS. 8, 9 and 10. • TPP-15285 (mIgG2a) is a surrogate antibody for anti-CCR8 antibody TPP-23411 and induces both, ADCC and ADCP. TPP-15285 was administered i.p. at 3 mg/kg with a BIWx4 administration scheme. • TPP-10748 (Iso Ctrl aCCR8) served as isotype control for TPP-15285 (mIgG2a) and was administered i.p. at 3 mg/kg with a BIWx4 administration scheme. • TPP-3911 (Atezo, mIgG1) was used as anti-PD(L)1 antibody (e.g. pembrolizumab surrogate) and was administered i.p. at 3 mg/kg with a BIWx4 administration scheme. • TPP-3267 or TPP-10149 (mIgG1) served as isotype control for anti-PD(L)1 antibody TPP-3911 (mIgGa) and were abbreviated Iso Ctrl aPD(L)1.
Antibody treatment was started on ~day 7 after tumor inoculation at ~80-100 mm^3 tumor volume, i.e. antibody administration occurred on days 7, 10, 14 and 17, after tumor inoculation. DGK inhibitor treatment started two days after the first antibody administration, i.e. on ~day 9 after tumor inoculation, i.e. DGK inhibitor was administered on day 9, 10, 11, 12, 13, 14, 15, 16, 17, 18, 19, 20 and 21 after tumor inoculation. Tumor growth inhibition was measured until tumors reached a size of 1100 mm^3 (approx. Day 20 after tumor inoculation).

Experiment [1] relates to Hepa 1-6 tumor bearing mice. Briefly: Hepa 1-6 tumor bearing mice, mean tumor volume (Example 8). Type of experiment: in vivo. To be noted: DGKzeta inhibitor A′ 3 mg/kg QD p.o., TPP-15285 5 mg/kg BIW i.p. From the text: While the antibody administration was started on day 7 after tumor inoculation, the DGK inhibitor treatment started two days later, on day 9 after tumor inoculation. This schedule was designed to allow the efficient depletion of the Tregs by the anti-mouse CCR8 surrogate antibody before the DGK inhibitor activates the T cells. […] While the antibody administration was started on day 7 after tumor inoculation, the DGK inhibitor treatment started two days later, on day 9 after tumor inoculation. This schedule was designed to allow the efficient depletion of the Tregs by the anti-mouse CCR8 surrogate antibody before the DGK inhibitor activates the T cells. […] While the antibody administration was started on day 7 after tumor inoculation, the DGKalpha and DGKzeta inhibitor treatment started two days later, on day 9 after tumor inoculation. This schedule was designed to allow the efficient depletion of the Tregs by the anti-mouse CCR8 surrogate antibody before the DGK inhibitor activates the T cells. […] The DGKalpha and DGKzeta inhibitor treatment started on day 9 after tumor inoculation.

For another experiment, the target named is T1, human DGKzeta (Homo sapiens, UniProt Q13574).
T1 construct: C-terminally FLAG-tagged, recombinant full-length human DGKζ; made in house; host or cells: baculovirus-infected insect cells
T1 sequence (Q13574 whole entry): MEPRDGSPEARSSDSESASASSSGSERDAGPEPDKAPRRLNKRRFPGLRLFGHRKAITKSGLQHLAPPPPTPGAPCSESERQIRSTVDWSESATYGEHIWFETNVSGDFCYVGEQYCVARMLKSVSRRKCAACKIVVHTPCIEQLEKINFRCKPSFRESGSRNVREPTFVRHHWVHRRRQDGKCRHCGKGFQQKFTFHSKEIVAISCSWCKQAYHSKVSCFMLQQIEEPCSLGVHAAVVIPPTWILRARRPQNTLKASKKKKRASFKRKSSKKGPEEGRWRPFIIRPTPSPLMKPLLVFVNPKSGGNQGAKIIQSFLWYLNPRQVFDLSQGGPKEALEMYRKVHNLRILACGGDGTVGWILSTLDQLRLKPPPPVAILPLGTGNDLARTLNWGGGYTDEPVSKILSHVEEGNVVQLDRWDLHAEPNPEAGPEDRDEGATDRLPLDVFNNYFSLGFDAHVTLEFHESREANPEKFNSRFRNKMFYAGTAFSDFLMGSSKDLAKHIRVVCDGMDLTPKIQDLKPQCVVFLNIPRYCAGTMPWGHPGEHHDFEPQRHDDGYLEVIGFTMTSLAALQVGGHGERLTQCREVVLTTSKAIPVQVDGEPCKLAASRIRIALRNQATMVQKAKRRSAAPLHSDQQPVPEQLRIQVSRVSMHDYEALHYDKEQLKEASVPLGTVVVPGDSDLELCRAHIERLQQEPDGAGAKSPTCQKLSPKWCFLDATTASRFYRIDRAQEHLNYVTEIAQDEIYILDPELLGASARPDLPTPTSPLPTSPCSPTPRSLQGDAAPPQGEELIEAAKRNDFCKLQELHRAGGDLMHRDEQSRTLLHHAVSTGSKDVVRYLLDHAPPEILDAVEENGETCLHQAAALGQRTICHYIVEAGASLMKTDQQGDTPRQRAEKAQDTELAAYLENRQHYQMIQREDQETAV
Briefly: Human DGKzeta kinase activity inhibition assay (ADP-Glo). To be noted: read-out: IC50 hDGKz. The experiment is classed as biochemical. As for the experimental part:
Human diacylglycerol kinase zeta (DGKζ) inhibitory activity of compounds of the present invention was quantified employing the human DGKζ kinase activity assay as described in the following paragraphs. In essence, the enzyme activity was measured by quantification of the adenosine-di-phosphate (ADP) generated as a co-product of the enzyme reaction via the “ADP-Glo™ Kinase Assay” kit from the company Promega. This detection system works as follows: In a first step the adenosine-tri-phosphate (ATP) not consumed in the kinase reaction is quantitatively converted to cyclic adenosine-mono-phosphate (cAMP) employing an adenylate cyclase (“ADP-Glo-reagent”), then the adenylate cyclase is stopped and the ADP generated in the kinase reaction is converted to ATP, which subsequently generates in a luciferase-based reaction a glow-luminescence signal (“Kinase Detection Reagent”).
C-terminally FLAG-tagged, recombinant full-length human DGKζ (inhouse expressed in baculovirus infected insect cells, purified using anti-Flag pulldown and size exclusion chromatography) was used as enzyme. As an alternative, commercially available enzyme by Carnabio can be used. As substrate for the kinase, 1,2-dioleoyl-sn-glycerol, reconstituted in octyl-β-D-glucopyranoside micelles, was used. […] Then 35 volumes of 50 mM MOPS buffer (pH 7.4) were added to yield a solution of 0.28 mM 1,2 dioleoyl-sn-glycerol and 200 mM octyl-β-D-glucopyranoside, which was aliquoted, flash-frozen in liquid nitrogen, and stored at −20° C. until use.
For the assay 50 nl of a 100-fold concentrated solution of the test compound in dimethyl sulfoxide (DMSO, Sigma) was pipetted into either a white 1536-well or a white low-volume 384-well microtiter plate (both Greiner Bio-One, Frickenhausen, Germany). […] The concentration of DGKζ was adjusted depending of the activity of the enzyme lot and was chosen appropriate to have the assay in the linear range, a typical concentration is about 0.1 nM. The reaction was stopped by the addition of 2.5 μL of “ADP-Glo-reagent” (1 to 1.5 diluted with water) and the resulting mixture was incubated at 22° C. for 1 h to convert the ATP not consumed in the kinase reaction completely to cAMP. […] The amount of emitted light was taken as a measure for the amount of ADP generated and thereby for the activity of the DGKζ.
Background: ADP-Glo first removes unused ATP, then detects ADP through luciferase.

[2] abbreviates: 4 days after start of treatment.
The mark [3] stands for this setting: 7 days after start of treatment.
The mark [4] stands for this setting: 10 days after start of treatment.
The mark [5] stands for this setting: 12 days after start of treatment.
[6] abbreviates: 14 days after start of treatment.
The mark [7] stands for this setting: 17 days after start of treatment.
Where [8] appears, read: −1 days after start of treatment (6 days after start of transplantation).
Where [9] appears, read: Day 0, DGKalpha inhibitor A 5 mg/kg QD p.o.
Where [10] appears, read: Day 4, DGKalpha inhibitor A 5 mg/kg QD p.o.
[11] abbreviates: Day 7, DGKalpha inhibitor A 5 mg/kg QD p.o.
[12] abbreviates: Day 11, DGKalpha inhibitor A 5 mg/kg QD p.o.
The mark [13] stands for this setting: Day 14, DGKalpha inhibitor A 5 mg/kg QD p.o.
Where [14] appears, read: Day 18, DGKalpha inhibitor A 5 mg/kg QD p.o.
Where [15] appears, read: Day 20, DGKalpha inhibitor A 5 mg/kg QD p.o.

`COc1ccc(C(=O)c2sc(N(c3ccc(F)cc3)[C@H](C)C(N)=O)nc2N)cc1` [DGKzeta inhibitor A′, (R)-2-(N-[4-amino-5-(4-methoxybenzoyl)thiazol-2-yl]-4-fluoro-anilino)propanamide]: in the experiment on MC38 mouse model, the “inhibition of tumor growth” value is recorded as “only moderate inhibition of tumor growth”. Moreover, the Tumor volume in the experiment on MC38 mouse model (setting [2]) is on record as 115.9 mm^3; with MC38 mouse model (setting [3]), 211.9 mm^3; in the experiment with MC38 mouse model (setting [4]), 322.0 mm^3; in the experiment on MC38 mouse model (setting [5]), 508.0 mm^3; in the experiment with MC38 mouse model (setting [6]), 684.4 mm^3; in the experiment with MC38 mouse model (setting [7]), 1097.3 mm^3. Further, the Tumor volume in the experiment on MC38 mouse model (setting [8]) is on record as 62.4 mm^3. The Mean tumor volume in experiment [1] (setting [9]) turned out to be 88.99 mm^3; in experiment [1] (setting [10]) it was 224.86 mm^3; in experiment [1] (setting [11]), 429.26 mm^3; in experiment [1] (setting [12]) it was 624.07 mm^3; in experiment [1] (setting [13]), 799.19 mm^3; in experiment [1] (setting [14]), 1001.75 mm^3. This compound also displayed a Mean tumor volume in experiment [1] (setting [15]) of 1158.6 mm^3.

In the case of `Cc1ccc2oc(C3CCN(c4c(C(N)=O)c(=O)n(C)c5ccc(F)cc45)CC3)nc2c1` [DGKalpha inhibitor A, 6-fluoro-1-methyl-4-[4-(5-methyl-1,3-benzoxazol-2-yl)piperidin-1-yl]-2-oxo-1,2-dihydroquinoline-3-carboxamide], the “inhibition of tumor growth” value in the experiment on MC38 mouse model was “only moderate inhibition of tumor growth”. Besides, the Tumor volume in the experiment on MC38 mouse model (setting [2]) came out at 134.0 mm^3; in the experiment with MC38 mouse model (setting [3]), 207.0 mm^3; in the experiment with MC38 mouse model (setting [4]), 412.4 mm^3; in the experiment with MC38 mouse model (setting [5]), 524.8 mm^3; in the experiment on MC38 mouse model (setting [6]), 735.4 mm^3; in the experiment with MC38 mouse model (setting [7]) it was 1122.5 mm^3. In addition, the Tumor volume in the experiment on MC38 mouse model (setting [8]) is recorded as 62.0 mm^3. Moreover, the Mean tumor volume stood at 88.99 mm^3 in experiment [1] (setting [9]); 186.75 mm^3 in experiment [1] (setting [10]); 321.40 mm^3 in experiment [1] (setting [11]); 461.93 mm^3 in experiment [1] (setting [12]); 569.94 mm^3 in experiment [1] (setting [13]); 787.30 mm^3 in experiment [1] (setting [14]). Moreover, in experiment [1] (setting [15]), the Mean tumor volume amounted to 957.86 mm^3. At human DGKzeta, the IC50 came to 17.2 µM.

The IC50 is the concentration that gives 50% inhibition.
